Patent publication US10577350B2, “Crystalline forms of (R)-N-((4-methoxy-6-methyl-2-oxo-1,2-dihydropyridin-3-yl)methyl)-2-methyl-1-(1-(1-(2,2,2-trifluoroethyl)piperidin-4-yl)ethyl)-1H-indole-3-carboxamide” (Constellation Pharmaceuticals, Inc., priority 2015, dated 2020)
Blank lines part the entries; values can stand above or below the molecule they belong to.

Columns and labels:
[1] = Pharmacokinetics in rat after oral suspension; type: in vivo, rats; settings: for Cmax / AUC(0-t): plasma; for AUC(0-t): read-out: AUC0-24 h
Text: Compound 365 was formulated similarly to Form C, suspension in 0.5% methylcellulose, 0.1% Tween 80 in purified water.

[2] = DVS moisture sorption at 25° C.; type: physicochemical; settings: for Post DVS changes: after DVS, PLM, XRD, DSC, TGA; for DVS final sample wt lower than starting wt: after one full sorption cycle
Description: Moisture sorption profiles were generated isothermally at 25° C. using a Hiden IGAsorp moisture sorption analyzer. Samples were dried on the instrument under inert nitrogen at 40° C. for 60 min. Following drying the samples moisture sorption was determined by performing one full cycle of weight measurements at 0, 10, 20, 30, 40, 50, 60, 70, 80, 90 and 95% RH, with exposure time at each humidity set point dependent upon a minimum of 99% confidence in the F1 fit model or 15 min, with a maximum timeout of 120 min. The moisture sorption isotherms were plotted as a function of weight change (relative weight % of the dried starting weight) and % RH.

[3] = Aqueous solubility of solid forms (Table 2); type: physicochemical
[4] = Pharmacokinetics in dog after oral suspension; type: in vivo; settings: dogs (both genders), twice-daily oral; for Cmax / AUC(0-t): both sexes, dog, plasma, suspension in 0.5% methylcellulose; for AUC(0-t): read-out: AUC0-24 h
Description: Doses levels ranging from 50 mg/kg to 500 mg/kg were permitted to achieve pharmacological relevant systemic exposures.

[5] = Relative polymorph stability (statement); type: physicochemical; settings: compared with the other forms
[6] = oral, rat, Table 8, formulated similarly to Form C (suspension in 0.5% methylcellulose, 0.1% Tween 80), 100 mg/kg/day
[7] = oral, rat, Table 8, formulated similarly to Form C (suspension in 0.5% methylcellulose, 0.1% Tween 80), 300 mg/kg/day
[8] = both sexes, rat, rats (both genders), once-daily oral, suspension in 0.5% methylcellulose, 0.1% Tween 80, 100 mg/kg/day
[9] = both sexes, rat, rats (both genders), once-daily oral, suspension in 0.5% methylcellulose, 0.1% Tween 80, 300 mg/kg/day
[10] = both sexes, rat, rats (both genders), once-daily oral, suspension in 0.5% methylcellulose, 0.1% Tween 80, 600 mg/kg/day

Cmax [1, 6]: 7160 ng/mL
AUC(0-t) [1, 6]: 24200 ng·h/mL
Cmax [1, 7]: 9810 ng/mL
AUC(0-t) [1, 7]: 78400 ng·h/mL
Cmax and AUC compared with Form C ([1]; rat, at both 100 and 300 mpk): slightly superior
Post DVS changes [2]: Amorphous
DVS final sample wt lower than starting wt [2]: same wt ~1%
DVS wt gain ([2]; at 95% RH, 25° C.): 7.4% wt gain
Aqueous Solubility ([3]; pH 1.2): pH 1.2: ≥921 ug/mL
Aqueous Solubility ([3]; pH 6.5): pH 6.5: 18 ug/mL
Aqueous Solubility ([3]; pH 7.4): pH 7.4: 140 ug/mL
Compound: COc1cc(C)[nH]c(=O)c1CNC(=O)c1c(C)n([C@H](C)C2CCN(CC(F)(F)F)CC2)c2ccccc12 [Amorphous, (R)—N-((4-methoxy-6-methyl-2-oxo-1,2-dihydropyridin-3-yl)methyl)-2-methyl-1-(1-(1-(2,2,2-trifluoroethyl)piperidin-4-yl)ethyl)-1H-indole-3-carboxamide]

Post DVS changes [2]: No significant
DVS wt gain ([2]; at 95% RH, 25° C.): 7.2% wt gain
Aqueous Solubility ([3]; pH 1.2): pH 1.2: ≥970 ug/mL
Aqueous Solubility ([3]; pH 6.5): pH 6.5: 120 ug/mL
Aqueous Solubility ([3]; pH 7.4): pH 7.4: 112 ug/mL
Compound: COc1cc(C)[nH]c(=O)c1CNC(=O)c1c(C)n([C@H](C)C2CCN(CC(F)(F)F)CC2)c2ccccc12 [Form B, (R)—N-((4-methoxy-6-methyl-2-oxo-1,2-dihydropyridin-3-yl)methyl)-2-methyl-1-(1-(1-(2,2,2-trifluoroethyl)piperidin-4-yl)ethyl)-1H-indole-3-carboxamide]

Post DVS changes [2]: 1% reduction
DVS final sample wt lower than starting wt [2]: wt ~0.8 lower %
DVS wt gain ([2]; at 80% RH, 25° C.): 2% wt gain at
DVS wt gain ([2]; at 95% RH, 25° C.): 5.3 wt gain at % wt
solubility ([3]; aqueous medium at pH 1.2 (buffer not named), pH 1.2, simulated gastric fluid, pH 1.2): ≥ 961 µg/mL
Aqueous Solubility ([3]; pH 6.5): pH 6.5: 31 ug/mL
Aqueous Solubility ([3]; pH 7.4): pH 7.4: 28 ug/mL
Compound: COc1cc(C)[nH]c(=O)c1CNC(=O)c1c(C)n([C@H](C)C2CCN(CC(F)(F)F)CC2)c2ccccc12 [Form A, (R)—N-((4-methoxy-6-methyl-2-oxo-1,2-dihydropyridin-3-yl)methyl)-2-methyl-1-(1-(1-(2,2,2-trifluoroethyl)piperidin-4-yl)ethyl)-1H-indole-3-carboxamide]

Cmax [1, 8]: 6140 ng/mL
AUC(0-t) [1, 8]: 19600 ng·h/mL
Cmax [1, 9]: 12800 ng/mL
AUC(0-t) [1, 9]: 86400 ng·h/mL
Cmax [1, 10]: 56800 ng/mL
AUC(0-t) [1, 10]: 128000 ng·h/mL
systemic exposure AUC(0-24), dependence on dose ([1]; rats (both genders), once-daily oral, between 100 and 600 mg/kg): increased dose-proportionally
DVS hygroscopicity ([2]; 25° C.): Non-
Post DVS changes [2]: No significant
DVS wt gain ([2]; at 95% RH, 25° C.): ≤ 2.3% wt
Aqueous Solubility ([3]; pH 1.2): pH 1.2: ≥913 ug/mL
Aqueous Solubility ([3]; pH 6.5): pH 6.5: 14 ug/mL
Aqueous Solubility ([3]; pH 7.4): pH 7.4: 9 ug/mL
Cmax ([4]; 0.1% Tween 80, 50 mg/kg BID): 6600 ng/mL
AUC(0-t) ([4]; 0.1% Tween 80, 50 mg/kg BID): 42200 ng·h/mL
Cmax ([4]; 0.1% Tween 80, 150 mg/kg BID): 21300 ng/mL
AUC(0-t) ([4]; 0.1% Tween 80, 150 mg/kg BID): 176000 ng·h/mL
Cmax ([4]; 0.1% Tween 80, 500 mg/kg BID): 34200 ng/mL
AUC(0-t) ([4]; 0.1% Tween 80, 500 mg/kg BID): 378000 ng·h/mL
systemic exposure AUC(0-24), dependence on dose ([4]; between 50 and 500 mg/kg BID): increased mostly dose-proportionally
polymorph stability [5]: the most stable polymorph
Compound: COc1cc(C)[nH]c(=O)c1CNC(=O)c1c(C)n([C@H](C)C2CCN(CC(F)(F)F)CC2)c2ccccc12 [Form C, (R)—N-((4-methoxy-6-methyl-2-oxo-1,2-dihydropyridin-3-yl)methyl)-2-methyl-1-(1-(1-(2,2,2-trifluoroethyl)piperidin-4-yl)ethyl)-1H-indole-3-carboxamide]
